From patent US7615651B2, “Diaryl, dipyridinyl and aryl-pyridinyl derivatives and uses thereof” (Pfizer Inc., priority 2006, dated 2009)
Like-named read-outs stand apart in the source and are kept apart here.

How the values were obtained:
Format in all cases: biochemical
opioid receptor kappa = target: T1, opioid receptor kappa (Homo sapiens, UniProt P41145); assay: GTPγ[35S] binding assay, antagonism of dynorphin-A
T1 construct: expressed in transfected cells
Protocol: (§1) Membranes were prepared from cells as described (Bass et al, 1996). GTPγ[5S] binding assays were performed in a 96 well FlashPlate™ format in duplicate using […] GTPγ[^35S] and 5 μg membrane per well in assay buffer composed of 50 mM Tris HCl, pH 7.4, 5 mM MgCl2, 1 mM EDTA, 100 mM NaCl, 30 μM GDP, 0.1% bovine serum albumin and the following protease inhibitors: 100 μg/ml bacitracin, 100 μg/ml benzamidine, 5 μg/ml aprotinin, 5 μg/ml leupeptin. The assay mix was then incubated at 30° C. with increasing concentrations of antagonist (10^−10 M to 10^−5 M) for 10 minutes and challenged with the agonists BW-373U86 (1 nM), dynorphin-A (10 nM), […] (1 μM) for opioid receptors delta, kappa, and mu, respectively. The assays were performed at 30° C. for one hour. The FlashPlates were then centrifuged at 2000×g for 10 minutes. Stimulation of GTPγ[^35S] binding was then quantified using a Wallac Microbeta and Ki calculations were done using Prism™ by Graphpad.

opioid receptor delta = target: T2, opioid receptor delta (Homo sapiens, UniProt P41143); assay: GTPγ[35S] binding assay, antagonism of BW-373U86
T2 construct: expressed in transfected cells
Protocol: as §1

opioid receptor mu = target: T3, opioid receptor mu (Homo sapiens, UniProt P35372); assay: GTPγ[35S] binding assay, antagonism of endorphin
T3 construct: expressed in transfected cells
Protocol: as §1

[1] = read-out: Kappa functional (GTPγ[35S] binding Ki)
[2] = read-out: Delta functional (GTPγ[35S] binding Ki)
[3] = read-out: Mu functional (GTPγ[35S] binding Ki)
[4] = read-out: Kappa functional Ki (GTPγ[35S] binding)
[5] = read-out: Delta functional Ki (GTPγ[35S] binding)
[6] = read-out: Mu functional Ki (GTPγ[35S] binding)
[7] = average Ki, antagonism of dynorphin-A (10 nM) at kappa opioid receptor membranes, read-out: Kappa functional Ki (GTPγ[35S] binding)
[8] = average Ki, antagonism of BW-373U86 (1 nM) at delta opioid receptor membranes, read-out: Delta functional Ki (GTPγ[35S] binding)
[9] = average Ki, antagonism of endorphin (1 μM) at mu opioid receptor membranes, read-out: Mu functional Ki (GTPγ[35S] binding)

T1 sequence (P41145 whole entry): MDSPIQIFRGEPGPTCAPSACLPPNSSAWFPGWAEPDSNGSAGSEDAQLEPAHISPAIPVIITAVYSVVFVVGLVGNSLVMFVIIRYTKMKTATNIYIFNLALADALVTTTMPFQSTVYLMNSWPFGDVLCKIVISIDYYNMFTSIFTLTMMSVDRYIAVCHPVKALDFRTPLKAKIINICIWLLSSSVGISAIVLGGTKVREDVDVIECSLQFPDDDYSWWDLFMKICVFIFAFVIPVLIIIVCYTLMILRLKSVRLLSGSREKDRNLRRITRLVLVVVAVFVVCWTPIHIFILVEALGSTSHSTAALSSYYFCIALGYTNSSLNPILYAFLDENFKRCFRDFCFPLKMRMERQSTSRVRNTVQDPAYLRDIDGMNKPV
T3 sequence (P35372 whole entry): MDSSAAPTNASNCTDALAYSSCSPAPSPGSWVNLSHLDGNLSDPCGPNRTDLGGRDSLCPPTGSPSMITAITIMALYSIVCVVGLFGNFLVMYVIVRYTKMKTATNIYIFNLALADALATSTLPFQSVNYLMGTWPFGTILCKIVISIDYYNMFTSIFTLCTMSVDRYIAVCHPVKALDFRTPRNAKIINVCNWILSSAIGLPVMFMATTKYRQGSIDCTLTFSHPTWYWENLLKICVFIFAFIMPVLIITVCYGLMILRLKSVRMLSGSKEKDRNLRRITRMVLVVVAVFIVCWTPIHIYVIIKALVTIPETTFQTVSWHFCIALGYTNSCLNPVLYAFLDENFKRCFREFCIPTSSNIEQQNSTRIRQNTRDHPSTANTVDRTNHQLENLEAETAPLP
T2 sequence (P41143 whole entry): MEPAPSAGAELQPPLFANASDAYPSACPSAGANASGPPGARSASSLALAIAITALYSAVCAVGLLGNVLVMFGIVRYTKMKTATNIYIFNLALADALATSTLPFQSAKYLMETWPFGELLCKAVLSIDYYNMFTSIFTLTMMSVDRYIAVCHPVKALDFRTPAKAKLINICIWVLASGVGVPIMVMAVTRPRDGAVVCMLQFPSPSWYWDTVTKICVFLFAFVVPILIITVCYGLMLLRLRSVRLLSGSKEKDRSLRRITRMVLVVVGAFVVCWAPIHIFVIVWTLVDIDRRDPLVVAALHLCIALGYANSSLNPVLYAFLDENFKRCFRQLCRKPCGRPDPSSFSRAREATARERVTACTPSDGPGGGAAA

Structure (SMILES) | Ki (opioid receptor kappa; [1]) [nM] | Ki (opioid receptor delta; [2]) [nM] | Ki (opioid receptor mu; [3]) [nM] | Ki (opioid receptor kappa; [4]) [nM] | Ki (opioid receptor delta; [5]) [nM] | Ki (opioid receptor mu; [6]) [nM] | also measured
Cc1cc(C(N)=O)ccc1-c1ccc(CNCCOc2ccccc2)cc1 [4B-16] | 7.65 | 0.751 | 2.82 | – | – | – | –
Cc1cc(C(N)=O)ccc1-c1ccc(CNCc2cccc(F)c2)cc1 [4B-17] | 1.21 | 1.13 | 2.56 | – | – | – | –
Cc1cc(C(N)=O)ccc1-c1ccc(CNCc2ccc3c(c2)CC(C)(C)O3)cc1 [4B-18] | 18.7 | 2.46 | 5.72 | – | – | – | –
Cc1cc(C(N)=O)ccc1-c1ccc(CNC(C)(C)c2ccccc2)cc1 [4B-19] | 23.4 | 19.5 | 126 | – | – | – | –
Cc1cc(C(N)=O)ccc1-c1ccc(CNCc2ccc3c(c2)CCO3)cc1 [4B-20] | 34.5 | 4.21 | 7.1 | – | – | – | –
Cc1cc(C(N)=O)ccc1-c1ccc(CNC2CCc3ccccc32)cc1 (stereo not drawn) [4B-21] | 0.872 | 1.25 | 1.5 | – | – | – | –
Cc1cc(C(N)=O)ccc1-c1ccc(CNC2CCOc3c(C)cccc32)cc1 (stereo not drawn) [4B-22] | 4.92 | 5.1 | 7.56 | – | – | – | –
Cc1cc(C(N)=O)ccc1-c1ccc(CNC2(c3cccc(Cl)c3)CC2)cc1 [4B-23] | 14.2 | 46.3 | 266 | – | – | – | –
Cc1cc(C(N)=O)ccc1-c1ccc(CNC2(c3ccccc3)CC2)cc1 [4B-24] | 400 | 22.7 | 1290 | – | – | – | –
Cc1cc(C(N)=O)ccc1-c1ccc(CNC(C)(C)c2cccc(Cl)c2)cc1 [4B-25] | 6.11 | 22.6 | 37.6 | – | – | – | –
Cc1cc(C(N)=O)ccc1-c1ccc(CNCc2ccccc2F)cc1 [4B-26] | 3.32 | 5.72 | 4.55 | – | – | – | –
Cc1cc(C(N)=O)ccc1-c1ccc(CNC(C)c2ccc3ccccc3c2)cc1 (stereo not drawn) [4B-27] | 2.86 | 2.98 | 14.3 | – | – | – | –
Cc1cc(C(N)=O)ccc1-c1ccc(CN[C@@H]2CCCc3ccccc32)cc1 [4B-28] | 4.12 | 26.3 | 26.1 | – | – | – | –
CC(C)CCNCc1ccc(-c2ccc(C(N)=O)cc2Cl)cc1 [4B-29] | 6.1 | 6.12 | 16.2 | – | – | – | –
NC(=O)c1ccc(-c2ccc(CNC3Cc4ccccc4C3)cc2)c(Cl)c1 [4B-30] | 0.842 | 0.378 | 0.41 | – | – | – | –
Cc1cc(C(N)=O)ccc1-c1ccc(CNCC2Cc3ccccc3O2)cc1 (stereo not drawn) [4B-31] | 3.71 | 1.09 | 4.05 | – | – | – | –
Cc1cc(C(N)=O)cc(C)c1-c1ccc(CNC2Cc3ccccc3C2)cc1 [4B-32] | 0.14 | 0.0696 | 0.0492 | – | – | – | –
Cc1cc(C(N)=O)ccc1-c1ccc(CN[C@@H]2CCc3ccccc32)cc1 [4B-33] | 0.911 | 2.49 | 4.95 | – | – | – | –
Cc1cc(C(N)=O)ccc1-c1ccc(CN[C@H]2CCc3ccccc32)cc1 [4B-34] | – | – | – | 0.512 | 1.09 | 1.08 | –
Cc1cc(C(N)=O)ccc1-c1ccc(CNCC2Cc3ccccc3C2)cc1 [4B-35] | – | – | – | 7.13 | 0.687 | 1.32 | –

Structure (SMILES) | Ki (opioid receptor kappa; [1]) [nM] | Ki (opioid receptor delta; [2]) [nM] | Ki (opioid receptor mu; [3]) [nM] | Ki (opioid receptor kappa; [4]) [nM] | Ki (opioid receptor delta; [5]) [nM] | Ki (opioid receptor mu; [6]) [nM] | also measured
Cc1cc(C(N)=O)ccc1-c1ccc(CNCC2CCc3ccccc3O2)cc1 (stereo not drawn) [4B-36] | – | – | – | 6.5 | 0.453 | 1.45 | –
NC(=O)c1ccc(-c2ccc(CNCCC3CCOCC3)cc2)c(Cl)c1 [4B-37] | – | – | – | 4.61 | 60.3 | 13.7 | –
NC(=O)c1ccc(-c2ccc(CN[C@H]3CCc4ccccc43)cc2)c(Cl)c1 [4B-38] | – | – | – | 1.14 | 5.59 | 3.33 | –
NC(=O)c1ccc(-c2ccc(CNCCC3CCCC3)cc2)c(Cl)c1 [4B-39] | – | – | – | 1.28 | 0.612 | 1.87 | –
Cc1cc(C(N)=O)ccc1-c1ccc(CNCC2CCOCC2)cc1 [4B-40] | – | – | – | 9.05 | 20.4 | 48.3 | –
Cc1cc(C(N)=O)ccc1-c1ccc(CN[C@H](C)c2ccccc2)cc1 [4B-41] | – | – | – | 13.5 | 14.1 | 61.4 | –
Cc1cc(C(N)=O)ccc1-c1ccc(CN[C@@H](C)c2ccccc2)cc1 [4B-42] | – | – | – | 6.19 | 22.2 | 65.4 | –
Cc1cc(C(N)=O)ccc1-c1ccc(CNCc2cccnc2)cc1 [4B-43] | – | – | – | 8.95 | 10.6 | 70.2 | –
Cc1cc(C(N)=O)ccc1-c1ccc(CNCc2ccccn2)cc1 [4B-44] | – | – | – | 25.7 | 26.1 | 61.7 | –
CC(C)CCNCc1ccc(-c2ccc(C(N)=O)cc2OCc2ccccc2)cc1 [4B-45] | – | – | – | 9.84 | 44.6 | 40.2 | –
CC(C)CCNCc1ccc(-c2ccc(C(N)=O)cc2O)cc1 [4B-47] | – | – | – | 80.6 | 543 | 549 | –
CCc1cc(C(N)=O)ccc1-c1ccc(CNCCC(C)C)cc1 [4B-48] | – | – | – | 13.9 | 16.1 | 12 | –
Cc1cc(C(N)=O)cc(Cl)c1-c1ccc(CNCCC(C)C)cc1 [4B-49] | – | – | – | 2.31 | 6.66 | 2.72 | –
Cc1cc(C(N)=O)ccc1-c1cc(F)c(CNCCC2CCOCC2)c(F)c1 [4B-50] | – | – | – | – | – | – | Ki (opioid receptor kappa; [7]): 0.948 nM; Ki (opioid receptor delta; [8]): 0.135 nM; Ki (opioid receptor mu; [9]): 1.45 nM
Cc1cc(C(N)=O)ccc1-c1cc(F)c(CNCCC2CCOCC2)c(F)c1 [4B-51] | – | – | – | 1.95 | 0.707 | 2.16 | –
CC[C@@H](NCc1c(F)cc(-c2ccc(C(N)=O)cc2C)cc1F)c1ccccn1 [4B-52] | – | – | – | 7.01 | 15.4 | 138 | –
Cc1cc(C(N)=O)ccc1-c1cc(F)c(CN[C@H](C)c2ccccn2)c(F)c1 [4B-53] | – | – | – | 43.1 | 3.74 | 92.7 | –
Cc1cc(C(N)=O)ccc1-c1cc(F)c(CNC2CCCC2)c(F)c1 [4B-54] | – | – | – | 15.4 | 14.5 | 37 | –
Cc1cc(C(N)=O)ccc1-c1cc(F)c(CNC[C@@H]2CCCO2)c(F)c1 [4B-55] | – | – | – | 8.55 | 19 | 30.7 | –
Cc1cc(C(N)=O)ccc1-c1ccc(CNCC2CCOCC2)c(F)c1 [4B-56] | – | – | – | 9.04 | 8.44 | 36.8 | –

Structure (SMILES) | Ki (opioid receptor kappa; [1]) [nM] | Ki (opioid receptor delta; [2]) [nM] | Ki (opioid receptor mu; [3]) [nM] | Ki (opioid receptor kappa; [4]) [nM] | Ki (opioid receptor delta; [5]) [nM] | Ki (opioid receptor mu; [6]) [nM] | also measured
NC(=O)c1ccc(-c2cc(F)c(CNCCC3CCOCC3)c(F)c2)c(Cl)c1 [4B-57] | – | – | – | 4.58 | 168 | 12.7 | –
NC(=O)c1ccc(-c2ccc(CNCCC3CCOCC3)c(F)c2)c(Cl)c1 [4B-58] | – | – | – | 1.77 | 4.02 | 7.3 | –
Cc1cc(C(N)=O)ccc1-c1cc(F)c(CNCC2CCOCC2)c(F)c1 [4B-59] | – | – | – | 9.47 | 19.1 | 33.3 | –
Cc1cc(C(N)=O)ccc1-c1ccc(CNCCC2CCOCC2)c(F)c1 [4B-60] | – | – | – | 1.49 | 1.43 | 3.9 | –
CC(C)CCNCc1ccc(-c2ccc(C(N)=O)cc2Cl)c(F)c1 [4B-61] | – | – | – | 4.92 | 12.6 | 25.6 | –
Cc1cc(CNCCC(C)C)ccc1-c1ccc(C(N)=O)cc1Cl [4B-62] | – | – | – | 2.56 | 3.58 | 6.4 | –
NC(=O)c1ccc(-c2ccc(CNC3Cc4ccccc4C3)c(F)c2)c(Cl)c1 [4B-63] | – | – | – | 0.633 | 0.629 | 0.226 | –
CC(C)CCNCc1ccc(-c2ccc(C(N)=O)cc2Cl)cc1F [4B-64] | – | – | – | 3.97 | 5.64 | 12.1 | –
CC(C)CCNCc1ccc(-c2ccc(C(N)=O)cc2Cl)cc1Cl [4B-65] | – | – | – | 2.15 | 4.79 | 10.8 | –
CC(C)CCNCc1ccc(-c2ccc(C(N)=O)cc2Cl)c(Cl)c1 [4B-66] | – | – | – | 2.52 | 7.52 | 7.83 | –
NC(=O)c1ccc(-c2ccc(CNCCC3CCOCC3)cc2Cl)c(Cl)c1 [4B-67] | – | – | – | 3.62 | 2.95 | 7.22 | –
NC(=O)c1ccc(-c2ccc(CNC3Cc4ccccc4C3)cc2Cl)c(Cl)c1 [4B-68] | – | – | – | – | – | – | Ki (opioid receptor kappa; [7]): 0.759 nM; Ki (opioid receptor delta; [8]): 0.724 nM; Ki (opioid receptor mu; [9]): 0.24 nM
NC(=O)c1ccc(-c2ccc(CNCCC3CCCCO3)cc2Cl)c(Cl)c1 (stereo not drawn) [4B-69] | – | – | – | 4.54 | 4.09 | 2.78 | –
Cc1cc(CNCCC2CCOCC2)ccc1-c1ccc(C(N)=O)cc1C [4B-70] | – | – | – | 2.48 | 1.04 | 2 | –
Cc1cc(CNCC2CCOCC2)ccc1-c1ccc(C(N)=O)cc1C [4B-71] | – | – | – | 6.91 | 6.2 | 8.37 | –
Cc1cc(CNCC2CCCO2)ccc1-c1ccc(C(N)=O)cc1C (stereo not drawn) [4B-72] | – | – | – | 5.44 | 13 | 9.83 | –
Cc1cc(CNC2Cc3ccccc3C2)ccc1-c1ccc(C(N)=O)cc1C [4B-73] | – | – | – | 0.318 | 0.135 | 0.0298 | –
Cc1cc(C(N)=O)ccc1-c1cc(F)c(CNCCC(C)C)cc1F [4B-74] | – | – | – | 4.45 | 4.8 | 4.37 | –
